Legend:
HCV replicon = HCV replicon assay (Huh-Luc cells, luciferase read-out); assay type: cell-based, HCV type Ib; conditions: Hepatitis C virus, 72 h, three days incubation, luciferase activity
Description: The compounds of formula (I) were examined for inhibitory activity in the HCV replicon. This cellular assay is based on a bicistronic expression construct, as described by Lohmann et al. (1999) Science vol. 285 pp. 110-113 with modifications described by Krieger et al. (2001) Journal of Virology 75: 4614-4624, in a multi-target screening strategy.
In essence, the method was as follows:
The assay utilized the stably transfected cell line Huh-7 luc/neo (hereafter referred to as Huh-Luc). This cell line harbors an RNA encoding a bicistronic expression construct comprising the wild type NS3-NS5B regions of HCV type Ib translated from an Internal Ribosome Entry Site (IRES) from encephalomyocarditis virus (EMCV), preceded by a reporter portion (FfL-luciferase), and a selectable marker portion (neo^R, neomycine phosphotransferase). The construct is flanked by 5′ and 3′ NTRs (non-translated regions) from HCV type Ib. Continued culture of the replicon cells in the presence of G418 (neo^R) is dependent on the replication of the HCV RNA. The stably transfected replicon cells that express HCV RNA, which replicates autonomously and to high levels, encoding inter alia luciferase, were used for screening the antiviral compounds.
The replicon cells were plated in 384 well plates in the presence of the test and control compounds which were added in various concentrations. Following an incubation of three days, HCV replication was measured by assaying luciferase activity (using standard luciferase assay substrates and reagents and a Perkin Elmer ViewLux™ ultraHTS microplate imager). Replicon cells in the control cultures have high luciferase expression in the absence of any inhibitor. The inhibitory activity of the compound on luciferase activity was monitored on the Huh-Luc cells, enabling a dose-response curve for each test compound. EC50 values were then calculated, which represent the amount of compound required to decrease the level of detected luciferase activity by 50%, or more specifically, to reduce the ability of the genetically linked HCV replicon RNA to replicate.

Cytotoxicity (Huh-7) = assay type: cell-based; conditions: human, Huh-7 cells
Description: The in vitro antiviral activity against HCV of the compounds of formula I can be tested in a cellular HCV replicon system based on Lohmann et al. (1999) Science 285:110-113, with the further modifications described by Krieger et al. (2001) Journal of Virology 75: 4614-4624 (incorporated herein by reference), which is further exemplified in the examples section. This model, while not a complete infection model for HCV, is widely accepted as the most robust and efficient model of autonomous HCV RNA replication currently available. It will be appreciated that it is important to distinguish between compounds that specifically interfere with HCV functions from those that exert cytotoxic or cytostatic effects in the HCV replicon model, and as a consequence cause a decrease in HCV RNA or linked reporter enzyme concentration. Assays are known in the field for the evaluation of cellular cytotoxicity based for example on the activity of mitochondrial enzymes using fluorogenic redox dyes such as resazurin. Furthermore, cellular counter screens exist for the evaluation of non-selective inhibition of linked reporter gene activity, such as firefly luciferase. Appropriate cell types can be equipped by stable transfection with a luciferase reporter gene whose expression is dependent on a constitutively active gene promoter, and such cells can be used as a counter-screen to eliminate non-selective inhibitors.

Structure (SMILES) | EC50 (HCV replicon) [µM] | CC50 (Cytotoxicity (Huh-7)) [µM]
CC(C)[C@@H](C(=O)N1CCC[C@H]1c1nc(-c2cccc(Oc3ccc(-c4cnc([C@@H]5CCCN5C(=O)[C@H](C(C)C)N(C)C)[nH]4)cc3)c2)c[nH]1)N(C)C [Example 31] | 1.16 | 2.87
O=C(Cc1ccccc1)N1CCC[C@H]1c1ncc(-c2ccc(Oc3ccc(-c4cnc([C@@H]5CCCN5C(=O)Cc5ccccc5)[nH]4)cc3)cc2)[nH]1 [Example 49] | 1.12 | > 31.5
COC(=O)N[C@H](C(=O)N1CCC[C@H]1c1ncc(-c2ccc(Oc3cccc(-c4cnc([C@@H]5CCCN5C(=O)[C@@H](NC(=O)OC)C(C)(C)C)[nH]4)c3)cc2)[nH]1)C(C)(C)C [Example 40] | 0.000165 | 12.6

Source: patent publication US8436036B2, “Diaryl ethers” (Janssen R&D Ireland, priority 2009, dated 2013)
